Read-outs that look alike come from different tables or passages of the source.
Experiments:
[1] = test system: Peripheral Blood Mononuclear cells (PBMC); experiment: in vitro; conditions: human, 24 h
Protocol: (§1) Cytotoxicity was evaluated using Peripheral Blood Mononuclear cells (PBMC) of volunteers donors (Royal Victoria Hospital, Montreal). These cells were purified by the ficoll-Paque PLUS according to the manufacturer (Amersham-Bioscience). PBMC were used at a density of 100 000 cells/ml in RPMI 1640 (Sigma) supplemented with 10% heat-inactivated fetal bovine serum, 0.3 g/L of L-glutamine, 2 g/L sodium carbonate, 100 U/ml of penicillin and 100 μg/ml of streptomycin (Sigma). Assays were done in 96-well microtiter plates (Costar 3595) and the cytotoxicity was evaluated after 24 hours of incubation at 37° C. in a 5% CO2 atmospheric incubator using the LDH Cytotoxicity detection kit, according to the manufacturer (Roche Diagnostic). […] FFA were diluted in ethanol (96%) and no more than 1% ethanol (final concentration) was used in assays. Ethanol (1%) was used as negative control.
(§2) This method measures the release of lactate dehydrogenase (LDH) from the cytosol of damaged cells into the supernatant (Roche Diagnostic).

in vitro = conditions: human, Toxicity (TC50) PBMCs
Protocol: as §1, §2

[2] = test system: C. albicans SC5314 strain; experiment: Antifungal assay against C. albicans (optical density at 630 nm); format: cell-based, Candida albicans; conditions: dextrose-free Sabouraud, 37° C., commercial FFA
Protocol: (§3) Fractionation of Blackcurrant Seed Oil. Journal of the American Oil Chemists Society 65: 755-760). […] Under constant stirring, the mixture was heated to 75° C., or until it became clear, and then cooled slowly to 2° C. After completion of urea crystallization at 2° C. (15 h), the UFFA enriched methanol phase was separated from the urea crystals by centrifugation (5 min) at 1000×g. […] Yields were determined gravimetrically. […] UV detection was used to monitor effluent at 215 nm. Water (10 ml) was added to each of the 45 collected HPLC fractions, and they were then extracted three times with hexane (3×10 ml). […] Antifungal assay using commercial FFA were done in quadruplicates. The antifungal activity was evaluated in 96-well microtiter plates (Costar 3595) using Sabouraud as incubating medium for A. fumigatus and dextrose-free Sabouraud for C. albicans. Spores of A. fumigatus (Jeanine Joly, Université de Montréal) were germinated at 25° C. on slant agar Sabouraud media. They were harvested by washing vigorously slant cultures with 5 ml of 0.9% NaCl. Coarse debris were removed by filtrating the Aspergillus spores suspension through a sterile cotton plugs inserted into a Pasteur pipet. Monodisperse spores suspensions were obtained following brief sonications in a water bath sonicator (Branson 1210). […] Blastospores of the C. albicans SC5314 strain were prepared as for germination inhibition assays (see above). […] Wells were washed three times with Sabouraud before optical reading.

C. albicans yeast cells = conditions: 10 mM; cited from earlier work
[3] = test system: Candida albicans ZK3379 strain (CAI-4 HWP1-lacZ); experiment: C. albicans HWP1-lacZ beta-galactosidase and XTT assays (kinetics of germination inhibition in hyphae inducing media); format: cell-based
Protocol: Candida albicans ZK3379 strain (CAI-4 HWP1-lacZ; Hogan, D A, Vik A, Kolter R (2004). A Pseudomonas aeruginosa quorum-sensing molecule influences Candida albicans morphology. Mol Microbiol 54: 1212-1223.) was used for beta-galactosidase and XTT assays. Cells from this strain were grown in YPDA at 30° C. to a density of about 1×10^8 cells/ml (hemacytometer). These late exponentially growing cells were then washed twice with water and kept on ice until used. Germination was induced by incubating cells (final density of 5×10^5 cells/ ml) at 37° C. in 2.5 ml of either dextrose-free Sabouraud (Joshi et al., 1973), Lee's (Lee K L, Buckley H R, Campbell C C (1975). An amino acid liquid synthetic medium for the development of mycelial and yeast forms of Candida albicans. Sabouraudia 13: 148-153, Spider (Liu H, Kohler J, Fink Gr (1994). Suppression of hyphal formation in Candida albicans by mutation of a STE12 homolog. Science 266: 1723-1726 or Hypha-Forming Media (Biswas S K, Yokoyama K, Kamei K, Nishimur K, Miyaji M (2001) Inhibition of hyphal growth of Candida albicans by activated lansoprazole, a novel benzimidazole proton pump inhibitor Med Mycol 39: 283-285.), supplemented with FFAs. All lipids were dissolved in ethanol. Assays were performed in duplicate in 24-wells mictotiter plates (Costar 3526) without agitation. After appropriate incubation times (i.e. 0, 2, 4 or 6 h), microtiter plates were centrifuged for 5 min at 2000 rpm (Jouan inc. CR3i) and supernatents, discarded. XTT assays were done immediately and essentially as described (Honraet K, Goetghebeur E, Nelis H J (2005). Comparison of three assays for the quantification of Candida biomass in suspension and CDC reactor grown biofilms. J Microbiol Methods 63: 287-295). For beta-galactosidase assays, microtiter plates were frozen at −80° C. and processed later as described (Kippert F (1995). A rapid permeabilization procedure for accurate quantitative determination of beta-galactosidase activity in yeast cells. FEMS Microbiol Lett 128: 201-206; Hogan et al., 2004) but directly in microtiters plates. Absorbances were measured in 96-well microtiters plates using a microtiter plate reader (Microplate Reader MR600), equipped with filters of 410 nm (beta-galactosidase) and 490 nm (XTT), respectively.
As inhibition of germination of C. albicans by molecules could be the result of early and/or late blocking events, a more comprehensive analysis of the activity of free fatty acids was performed using multiple time points and other germ tube inducing media. Therefore, germination was monitored at 0, 2, 4 and 6 h in dextrose-free Sabouraud, Lee's, Spider and HFM7 (i.e. serum) media using the C. albicans HWP1-lacZ assay: beta-galactosidase measurements should reflect the morphological change from yeast cells to hyphal growth (Hogan et al., 2004). beta-galactosidase results were normalized using the XTT assay (Honraet et al., 2005) to correct for biomass increase. Microscopic observations of cells after 6 h incubation are also presented for each inducing conditions and correlated with beta-galactosidase data (FIG. 2).

[4] = test system: Candida albicans SC5314 strain; experiment: Germination inhibition assay (antihyphal growth activity); format: cell-based; conditions: for MIC: commercial free fatty acids, gravimetrical quantification, read-out: MIC, antihyphal growth activity of individual free fatty acids
Protocol: The Candida albicans SC5314 strain (Fonzi, W. A. and Irwin, M. Y. 1993. Isogenic strain construction and gene mapping in Candida albicans. Genetics 134: 717-728.) was used to investigate the antihyphal activity of whey cream lipids. This strain was routinely grown as yeast cells at 30° C. in YPD medium (1% yeast extract, 2% peptone, 2% dextrose). Germination was induced by incubating cells in dextrose-free Sabouraud (Difco; Joshi, K. R., Gavin, J. B., and Bremner, D. A. 1973. The formation of germ tubes by Candida albicans in various peptone media. Sabouraudia. 11: 259-262.) at 37° C. in 96-wells microtiter plates (Costar 3595). Briefly, cells from fresh YPD cultures were harvested and washed twice with sterile water. Washed cells were suspended in dextrose-free Sabouraud at a density of 5×10^3 cells/ml and then immediately distributed to microtiter wells containing an equal volume of dextrose-free Sabouraud supplemented with different concentrations of lipids. After 15 h incubation at 37° C. in an atmospheric incubator without agitation, cells were washed and fixed with a fresh 1% formaldehyde solution. The ability of lipids to inhibit germination was determined by microscopic observations.

mammalian cells = experiment: Toxicity for mammalian cells in vitro; format: cell-based; conditions: thousand fold less concentrated solution than 10 mM; Bergsson et al., 2001; data not shown
A. fumigatus = experiment: Antifungal assay against A. fumigatus (optical density at 630 nm); format: cell-based; conditions: Aspergillus fumigatus; Sabouraud, 30° C., 40 h; commercial FFA
Protocol: as §3

[5] = Candida albicans, SC5314, complete inhibition of germination, 15 h, 37° C.
[6] = Candida albicans, SC5314, same MIC in μg/ml (in brackets)

CCCCCCCCCC(=O)O [Capric acid (C10:0), capric acid]
TC50, PBMC [1]: about 1.4 mM | CC50 at 24 h (in vitro): 1430 ± 32 µM | IC50 ([2]; Candida albicans, SC5314, 40 h): 182 µM | killing C. albicans yeast cells (C. albicans yeast cells): highly active | germ tube emergence and elongation ([3]; all inducing conditions tested (dextrose-free Sabouraud, Lee's, Spider, HFM7), 0-6 h (FIG. 2)): completely inhibited the emergence of germ tubes | MIC [4, 5]: 9 µM | MIC [4, 6]: 1.55 µg/mL | activity at inhibiting C. albicans germination ([4]; individual commercial free fatty acids, highest concentration used 81 μM): similarly active to lauric acid | toxicity for mammalian cells in vitro (mammalian cells): not toxic | IC50 (A. fumigatus): 127 µM

CCCC/C=C\CCCCCCCC(=O)O [Myristoleic acid (C14:1n-5), myristoleic acid]
CC50 [1]: 71.9 ± 6.2 µM | CC50 at 24 h (in vitro): 72 µM | IC50 ([2]; Candida albicans, SC5314, 40 h): 82 µM | IC50 ([2]; 40 h): 81.9 ± 9.2 µM | appearance of germ tubes ([3]; Spider and HFM7 media): partially inhibited the appearance of germ tubes | appearance of germ tubes ([3]; dextrose-free Sabouraud and Lee's inducing media): strongly inhibited the appearance of germ tubes | MIC [4, 5]: 9 µM | MIC [4, 6]: 2.04 µg/mL | MIC ([4]; complete inhibition of germination, 15 h, 37° C.): 9 µM | IC50 (A. fumigatus): 192 µM
